In patent US9315518B2, “Imidazopyridin-2-one derivatives” (Merck Sharp & Dohme Corp., priority 2011, dated 2016):

The compounds below were run against recombinant human mGluR2 (Homo sapiens (Human), UniProt Q14416) (assay: FLIPR Ca2+ mobilization assay, potentiation of glutamate response). Details: CHO dhfr- cells expressing human mGluR2 and Gα16; potentiation with EC20 glutamate (900 nM); read-out: hFLIPR pot. EC50.
Assay type: cell-based
Experimental: Inhibition constants are determined as follows. The compounds of the present invention may be tested in a […] (FLIPR) based assay. This assay is a common functional assay to monitor Ca^2+ mobilization in whole cells expressing recombinant receptor coupled with a promiscuous G-protein. CHO dhfr-cells stably expressing recombinant human mGluR2 and Gα16 loaded with Fluo-4 AM (Invitrogen, Carlsbad Calif.) are treated with dose responses of compounds and the Ca^2+ response is monitored on a FLIPR384 (Molecular Devices, Sunnydale Calif.) for agonist activity. The potentiation response is monitored after a subsequent addition of an EC20 concentration of glutamate (900 nM). The maximum calcium response at each concentration of compound for agonist or potentiation are plotted as dose responses and the curves are fitted with a four parameters logistic equation giving EC50 and Hill coefficient using the iterative non linear curve fitting software program.

recombinant human mGluR2, sequence (Q14416 19-872): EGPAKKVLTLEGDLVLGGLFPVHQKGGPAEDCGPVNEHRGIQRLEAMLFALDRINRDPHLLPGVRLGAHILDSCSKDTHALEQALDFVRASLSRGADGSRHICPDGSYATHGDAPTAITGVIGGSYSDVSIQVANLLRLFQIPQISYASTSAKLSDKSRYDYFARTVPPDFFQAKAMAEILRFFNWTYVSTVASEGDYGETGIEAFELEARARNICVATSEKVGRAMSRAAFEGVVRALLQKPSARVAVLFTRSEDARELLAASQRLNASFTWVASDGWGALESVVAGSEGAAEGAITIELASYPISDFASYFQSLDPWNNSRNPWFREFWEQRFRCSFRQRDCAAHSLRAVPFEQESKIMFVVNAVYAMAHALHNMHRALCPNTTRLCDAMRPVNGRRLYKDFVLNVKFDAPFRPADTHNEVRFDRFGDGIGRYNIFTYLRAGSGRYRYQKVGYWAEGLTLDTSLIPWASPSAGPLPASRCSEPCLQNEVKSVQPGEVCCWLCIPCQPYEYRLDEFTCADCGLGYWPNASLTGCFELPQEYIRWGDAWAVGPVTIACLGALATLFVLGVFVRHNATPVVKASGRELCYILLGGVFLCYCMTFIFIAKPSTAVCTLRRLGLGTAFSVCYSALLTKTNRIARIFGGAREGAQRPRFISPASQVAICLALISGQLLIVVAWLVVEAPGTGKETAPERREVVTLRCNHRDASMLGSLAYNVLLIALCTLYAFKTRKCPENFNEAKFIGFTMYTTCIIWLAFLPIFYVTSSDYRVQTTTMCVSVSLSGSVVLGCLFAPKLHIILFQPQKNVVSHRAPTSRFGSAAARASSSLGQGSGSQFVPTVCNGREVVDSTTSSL

EC50	Structure (SMILES)
64.1 nM	Cn1c(=O)n(CC(C)(C)C)c2ccc(C3=CC4CCC3CN4C(=O)C3CC3)nc21 (stereo not shown) [Compound 2-16, 5-[2-(cyclopropylcarbonyl)-2-azabicyclo[2.2.2]oct-5-en-5-yl]-1-(2,2-dimethylpropyl)-3-methyl-1,3-dihydro-2H-imidazo[4,5-b]pyridin-2-one]
322 nM	Cn1c(=O)n(CC(C)(C)C)c2ccc(C3CC4CCC3CN4C(=O)c3ccon3)nc21 (stereo not shown) [Compound 5-2, 1-(2,2-Dimethylpropyl)-5-[2-(isoxazol-3-ylcarbonyl)-2-azabicyclo[2.2.2]-oct-5-yl]-3-methyl-1,3-dihydro-2H-imidazo[4,5-b]pyridin-2-one]
29 nM	Cn1c(=O)n(CC2CC2(F)F)c2ccc(C3=CC4CCC3CN4C(=O)c3ccon3)nc21 (stereo not shown) [Compound 6-4, 1-[(2,2-Difluorocyclopropyl)methyl]-5-[2-(isoxazol-3-ylcarbonyl)-2-azabicyclo-[2.2.2]oct-5-en-5-yl]-3-methyl-1,3-dihydro-2H-imidazo[4,5-b]pyridin-2-one]
134 nM	Cn1c(=O)n(CC(C)(C)C)c2ccc(C3=CC4CN(C(=O)C5(O)CCC5)CC4C3)nc21 (stereo not shown) [Compound 8-14, 1-(2,2-dimethylpropyl)-5-{2-[(1-hydroxycyclobutyl)carbonyl]-1,2,3,3a,4,6a-hexahydrocyclopenta[c]pyrrol-5-yl}-3-methyl-1,3-dihydro-2H-imidazo[4,5-b]pyridin-2-one]
391 nM	Cn1c(=O)n(CC(C)(C)C)c2ccc(C3CC4CN(C(=O)c5ncc[nH]5)CC4C3)nc21 (stereo not shown) [Compound 11-5, 1-(2,2-dimethylpropyl)-5-[2-(1H-imidazol-2-ylcarbonyl)octahydrocyclo-penta[c]pyrrol-5-yl]-3-methyl-1,3-dihydro-2H-imidazo[4,5-b]pyridin-2-one]
123 nM	Cn1c(=O)n(CC2CC2(F)F)c2ccc(C3=CC4CN(C(=O)c5ncco5)CC4C3)nc21 (stereo not shown) [Compound 14-6, 1-[(2,2-difluoro-cyclopropyl)methyl]-3-methyl-5-[2-(1,3-oxazol-2-ylcarbonyl)-1,2,3,3a,4,6a-hexahydrocyclo-penta[c]pyrrol-5-yl]-1,3-dihydro-2H-imidazo[4,5-b]pyridin-2-one]
333 nM	Cn1c(=O)n(CC(C)(C)C)c2ccc(C3=CCC(NC(=O)C4CCCO4)CC3)nc21 (stereo not shown) [Compound 17-20, N-{4-[1-(2,2-dimethylpropyl)-3-methyl-2-oxo-2,3-dihydro-1H-imidazo[4,5-b]pyridin-5-yl]cyclohex-3-en-1-yl}tetrahydrofuran-2-carboxamide]
43.2 nM	Cn1c(=O)n(CC(C)(C)C)c2ccc(C3CCC(C)(C)C(NC(=O)c4cnsn4)C3)nc21 (stereo not shown) [Compound 18-200, N-{5-[1-(2,2-dimethylpropyl)-3-methyl-2-oxo-2,3-dihydro-1H-imidazo[4,5-b]pyridin-5-yl]-2,2-dimethylcyclohexyl}-1,2,5-thiadiazole-3-carboxamide]
951 nM	Cn1cnc(S(=O)(=O)N2CCCC(c3ccc4c(n3)n(C)c(=O)n4CC(C)(C)C)C2)c1 (stereo not shown) [Compound 19-4, 1-(2,2-dimethylpropyl)-3-methyl-5-{1-[(1-methyl-1H-imidazol-4-yl)sulfonyl]piperidin-3-yl}-1,3-dihydro-2H-imidazo[4,5-b]pyridin-2-one]
116 nM	Cc1cccc(S(=O)(=O)NC2CC(c3ccc4c(n3)n(C)c(=O)n4CC(C)(C)C)CCC2(C)C)c1 (stereo not shown) [Compound 19-62, N-{5-[1-(2,2-dimethylpropyl)-3-methyl-2-oxo-2,3-dihydro-1H-imidazo[4,5-b]pyridin-5-yl]-2,2-dimethylcyclohexyl}-3-methylbenzenesulfonamide]
48.5 nM	CN1c2nc(C3=CC4CN(C(=O)C(C)(C)O)CC4C3)ccc2N(CC2CC2(F)F)S1(=O)=O (stereo not shown) [Compound 24-7, 1-[5-{1-[(2,2-difluorocyclopropyl)methyl]-3-methyl-2,2-dioxido-1,3-dihydro[1,2,5]thiadiazolo[3,4-b]pyridin-5-yl}-3,3a,4,6a-tetrahydrocyclopenta [c]pyrrol-2(1H)-yl]-2-methyl-1-oxopropan-2-ol]
177 nM	CN1c2nc(C3=CCN(C(=O)c4ccon4)C3)ccc2N(CC2CC2(F)F)S1(=O)=O (stereo not shown) [Compound 24-20, 1-[(2,2-difluorocyclopropyl)methyl]-5-[1-(isoxazol-3-ylcarbonyl)-2,5-dihydro-1H-pyrrol-3-yl]-3-methyl-1,3-dihydro[1,2,5] thiadiazolo[3,4-b]pyridine 2,2-dioxide]
359 nM	CN1c2nc(C3CCCNC3)ccc2N(CC2CC2(F)F)S1(=O)=O (stereo not shown) [Compound 25-5, 1-[(2,2-difluorocyclopropyl)methyl]-3-methyl-5-piperidin-3-yl-1,3-dihydro[1,2,5] thiadiazolo[3,4-b]pyridine 2,2-dioxide]
14.4 nM	CC1C(c2ccc3c(n2)N(C)S(=O)(=O)N3CC2CC2(F)F)C1C(C)(C)O (stereo not shown) [Compound 34-3, 2-(2-{1-[(2,2-difluorocyclopropyl)methyl]-3-methyl-2,2-dihydro[1,2,5]thiadiazolo[3,4-b]pyridin-5-yl}-3-methylcyclopropyl) propan-2-ol]

The next lines start with the compound.

Structure (SMILES)	EC50
Cn1c(=O)n(CC(C)(C)C)c2ccc(C3=CC4CCC3CN4C(=O)c3csnn3)nc21 (stereo not shown) [Compound 2-8, 1-(2,2-dimethylpropyl)-3-methyl-5-[2-(1,2,3-thiadiazol-4-ylcarbonyl)-2-azabicyclo[2.2.2]oct-5-en-5-yl]-1,3-dihydro-2H-imidazo[4,5-b]pyridin-2-one]	28.1 nM
Cn1c(=O)n(CC(C)(C)C)c2ccc(C3=CC4CCC3CN4C(=O)c3cccnc3)nc21 (stereo not shown) [Compound 2-9, 1-(2,2-dimethylpropyl)-3-methyl-5-[2-(pyridin-3-ylcarbonyl)-2-azabicyclo[2.2.2]oct-5-en-5-yl]-1,3-dihydro-2H-imidazo[4,5-b]pyridin-2-one]	100 nM
Cn1c(=O)n(CC(C)(C)C)c2ccc(C3=CC4CCC3CN4C(=O)Cn3cncn3)nc21 (stereo not shown) [Compound 2-22, 1-(2,2-dimethylpropyl)-3-methyl-5-[2-(1H-1,2,4-triazol-1-ylacetyl)-2-azabicyclo[2.2.2]oct-5-en-5-yl]-1,3-dihydro-2H-imidazo[4,5-b]pyridin-2-one]	56.1 nM
Cn1c(=O)n(CC(C)(C)C)c2ccc(C3=CC4CCC3CN4C(=O)c3ncco3)nc21 (stereo not shown) [Compound 2-34, 1-(2,2-dimethylpropyl)-3-methyl-5-[2-(1,3-oxazol-2-ylcarbonyl)-2-azabicyclo[2.2.2]oct-5-en-5-yl]-1,3-dihydro-2H-imidazo[4,5-b]pyridin-2-one]	22.8 nM
Cn1c(=O)n(CC(C)(C)C)c2ccc(C3=CC4CN(C(=O)C5(O)CCN(C(=O)OC(C)(C)C)C5)CC4C3)nc21 (stereo not shown) [Compound 8-6, tert-butyl 3-({5-[1-(2,2-dimethylpropyl)-3-methyl-2-oxo-2,3-dihydro-1H-imidazo[4,5-b]pyridin-5-yl]-3,3a,4,6a-tetrahydrocyclopenta[c]pyrrol-2(1H)-yl}carbonyl)-3-hydroxypyrrolidine-1-carboxylate]	513 nM
Cn1c(=O)n(CC(C)(C)C)c2ccc(C3=CC4CN(C(=O)CO)CC4C3)nc21 (stereo not shown) [Compound 8-9, 1-(2,2-dimethylpropyl)-5-[2-(hydroxyacetyl)-1,2,3,3a,4,6a-hexahydrocyclopenta[c]pyrrol-5-yl]-3-methyl-1,3-dihydro-2H-imidazo[4,5-b]pyridin-2-one]	270 nM
Cn1c(=O)n(CC(C)(C)C)c2ccc(C3=CC4CN(C(=O)c5ncco5)CC4C3)nc21 (stereo not shown) [Compound 8-38]	17.9 nM
Cn1c(=O)n(CC(C)(C)C)c2ccc(C3=CCC(C(=O)NCc4ncco4)CC3)nc21 (stereo not shown) [Compound 17-15, 4-[1-(2,2-dimethylpropyl)-3-methyl-2-oxo-2,3-dihydro-1H-imidazo[4,5-b]pyridin-5-yl]-N-(1,3-oxazol-2-ylmethyl)cyclohex-3-ene-1-carboxamide]	594 nM
Cn1c(=O)n(CC(C)(C)C)c2ccc(C3CCC(C)(C)C(NC(=O)CCn4cncn4)C3)nc21 (stereo not shown) [Compound 18-10, N-{5-[1-(2,2-dimethylpropyl)-3-methyl-2-oxo-2,3-dihydro-1H-imidazo[4,5-b]pyridin-5-yl]-2,2-dimethylcyclohexyl}-3-(1H-1,2,4-triazol-1-yl)propanamide]	2190 nM
Cn1c(=O)n(CC(C)(C)C)c2ccc(C3CCC(C)(C)C(NC(=O)c4ccc(OC(F)(F)F)cc4)C3)nc21 (stereo not shown) [Compound 18-42, N-{5-[1-(2,2-dimethylpropyl)-3-methyl-2-oxo-2,3-dihydro-1H-imidazo[4,5-b]pyridin-5-yl]-2,2-dimethylcyclohexyl}-4-(trifluoro-methoxy)benzamide]	986 nM
Cn1cnc(C(=O)NCCCCc2ccc3c(n2)n(C)c(=O)n3CC(C)(C)C)c1 [Compound 38-5, N-{4-[1-(2,2-dimethylpropyl)-3-methyl-2-oxo-2,3-dihydro-1H-imidazo[4,5-b]pyridin-5-yl]butyl}-1-methyl-1H-imidazole-4-carboxamide]	1180 nM
